{"source": "ChEMBL document CHEMBL4354877", "about": "“MymA Bioactivated Thioalkylbenzoxazole Prodrug Family Active against Mycobacterium tuberculosis” (J Med Chem, 2020)", "assay_type_in_all_cases": "functional", "key": {"[1]": {"test_system": "Mycobacterium tuberculosis", "test": "Antimycobacterial activity against Mycobacterium tuberculosis 3-RM1 expressing mymA mutant assessed as inhibition of microbial growth incubated for 6 days by alamar blue resazurin assay"}, "[2]": {"test_system": "Mycobacterium tuberculosis", "test": "Antimycobacterial activity against Mycobacterium tuberculosis 2-RM1 expressing ethA frameshift mutant assessed as inhibition of microbial growth incubated for 6 days by alamar blue resazurin assay"}, "[3]": {"test_system": "Mycobacterium tuberculosis", "test": "Antimycobacterial activity against Mycobacterium tuberculosis SG2 expressing ethA and mymA mutant assessed as inhibition of microbial growth incubated for 6 days by alamar blue resazurin assay"}, "[4]": {"test_system": "Mycobacterium tuberculosis", "test": "Antimycobacterial activity against Mycobacterium tuberculosis Rv3083::Tn expressing mymA mutant assessed as inhibition of microbial growth incubated for 6 days by alamar blue resazurin assay"}}}
{"compound": "O=C(CCSc1nc2cc(Cl)ccc2o1)N1CCCC1", "values": [{"measurement": "MIC", "setting": "[1]", "result": 40, "unit": "µM"}, {"measurement": "MIC", "setting": "[2]", "result": 10, "unit": "µM"}, {"measurement": "MIC", "setting": "[3]", "result": 80, "unit": "µM"}, {"measurement": "MIC", "setting": "[4]", "result": 40, "unit": "µM"}]}
